{
  "source": "patent US20210260096A1",
  "about": "“PHARMACEUTICAL COMPOSITION FOR TREATING WOUND OR ACTIVATING SKIN, CONTAINING BETA-GLUCAN, GLYCITIN, AND 4',6,7-TRIMETHOXYISOFLAVONE” (Quegen Biotech Co., Ltd., priority 2018, published 2021)",
  "key": {"HaCaTs and HDFs": {"tested_on": "HaCaTs and HDFs", "test": "Proliferation and migration in Transwell HaCaT/HDF co-culture by composition of mixed solution", "format": "cell-based, human", "settings": "with respect to control PBS, 24 hours", "method": "5×10^4 cells/well of HaCaTs were seeded in the upper part and 1×10^4 cells/well of HDFs were seeded in the lower part of a Transwell invasion kit, […] of 10% FBS-containing DMEM and the three kinds of test solutions were treated and incubated under conditions of 37° C. and 5% CO2 for 24 hours, followed by determining an optimal concentration condition."}, "[1]": {"tested_on": "human keratinocytes (HaCaTs)", "test": "Differentiation, migration and invasion of epithelial cells under β-glucan single treatment", "format": "cell-based", "settings": "0.5% β-glucan among 0 to 10%; FIG. 1", "method": "(§1) The differentiation, migration and invasion of epithelial cells, such as human keratinocytes, and the differentiation of fibroblasts according to the single treatment of β-glucan were examined. β-glucan was produced by QUEGEN BIOTECH Co., LTD and used. Human dermal fibroblasts and human keratinocytes were purchased from Korean Cell Line Bank and used. The human dermal fibroblasts (HDFs) or the human keratinocytes (HaCaTs) were seeded in a 6-well plate containing […] of 10% FBS-containing DMEM at 1×10^4 cells/well (HDF) and 5×10^4 cells/well (HaCaT), and cultured under conditions of 37° C. and 5% CO2. During culture, the concentration of the epithelial cells (HaCaTs) and the fibroblasts were treated with 200 μL of β-glucan to have a concentration of 0 to 10% in a concentration dependent manner."}, "[2]": {"tested_on": "human dermal fibroblasts (HDFs)", "test": "Differentiation of fibroblasts under β-glucan single treatment", "format": "cell-based", "settings": "β-glucan 0 to 10%; FIG. 1", "method": "as §1"}},
  "data": [
    {"substance": "β-glucan", "values": [
      {"measurement": "Migration (%)", "setting": "HaCaTs and HDFs; 0.1%", "result": 110, "unit": "%"},
      {"measurement": "Proliferation (%)", "setting": "HaCaTs and HDFs; 0.1%", "result": 105, "unit": "%"},
      {"measurement": "Migration (%)", "setting": "HaCaTs and HDFs; 0.25%", "result": 130, "unit": "%"},
      {"measurement": "Proliferation (%)", "setting": "HaCaTs and HDFs; 0.25%", "result": 111, "unit": "%"},
      {"measurement": "Migration (%)", "setting": "HaCaTs and HDFs; 0.5%", "result": 151, "unit": "%"},
      {"measurement": "Proliferation (%)", "setting": "HaCaTs and HDFs; 0.5%", "result": 120, "unit": "%"},
      {"measurement": "Migration (%)", "setting": "HaCaTs and HDFs; 0.7%", "result": 153, "unit": "%"},
      {"measurement": "Proliferation (%)", "setting": "HaCaTs and HDFs; 0.7%", "result": 125, "unit": "%"},
      {"measurement": "Migration (%)", "setting": "HaCaTs and HDFs; 1.0%", "result": 161, "unit": "%"},
      {"measurement": "Proliferation (%)", "setting": "HaCaTs and HDFs; 1.0%", "result": 122, "unit": "%"},
      {"measurement": "Migration (%)", "setting": "HaCaTs and HDFs; 1.5%", "result": 110, "unit": "%"},
      {"measurement": "Proliferation (%)", "setting": "HaCaTs and HDFs; 1.5%", "result": 118, "unit": "%"},
      {"measurement": "differentiation, migration and invasion of epithelial cells by concentration", "setting": "[1]", "result": "optimal results"},
      {"measurement": "differentiation of the fibroblasts", "setting": "[2]", "result": "no significant change"}
    ]}
  ]
}
